{"source": "patent US10010492B2", "about": "“Methods and compositions for treating skin to resolve inflammation and screening for actives that stimulate pro-resolution pathways” (ELC Management LLC, priority 2015, dated 2018)", "key": {"[1]": {"tested_on": "Inflammatory Metabolites (PGE2, LTB4) and Inflammatory Metabolite Marker (5-HETE)", "assay": "Inflammatory Metabolites and Inflammatory Metabolite Markers in the aggregate, PMA/A23187-stimulated neutrophils, LC-MS/MS", "assay_type": "cell-based, human", "settings": "for net decrease in cellular concentration of Inflammatory Metabolites and Inflammatory Metabolite Markers vs control: human neutrophils pre-treated 24 h, then PMA/A23187", "protocol": "(§1) Ingredients were tested to assess the ability to promote Pro-Resolution Pathway Stimulators in human neutrophils. The following Inflammatory Metabolites were measured:\n(§2) PGE2 and LTB4. The Inflammatory Metabolite Marker, 5-HETE, was measured. Also measured were the Pro-Resolving Lipid Mediator Markers 15-HETE, 12-HETE, 14-HDOHE, 18-HEPE, and 17-HDOHE. PGE2, LTB4, and 5-HETE are indicators of inflammation. Increases in cellular secretion of PGE2, LTB4, or 5-HETE are seen in response to inflammation precipitating conditions. Active ingredients that cause a reduction in cellular concentration of PGE2, LTB4, or 5-HETE are anti-inflammatory in nature. Cellular secretion of Pro-Resolving Lipid Mediators occurs in the inflammation resolution phase. Active ingredients that stimulate cellular secretion of Pro-Resolving Lipid Mediators (as measured by measuring Pro-Resolving Lipid Mediator Markers) help to promote resolution of inflammation.\n(§3) Then, the inflammatory response was initiated by adding an inflammation precipitating ingredient, in particular PMA/[…] which is a mixture of 5-(methylamino)-2-({(2R,3R,6S,8S,9R,11R)-3,9,11-trimethyl-8-[(1S)-1-methyl-2-oxo-2-(1H-pyrrol-2-yl)ethyl]-1,7-dioxaspiro[5.5]undec-2-yl}methyl)-1,3-benzoxazole-4-carboxylic acid and PMA (phorbol myristate acetate), at a concentration of 0.05 μm and 1 μm respectively to each well. After one hour the supernatants were collected and stored at −80° C. until assayed.\n(§4) Cell supernatants were assayed for Inflammatory Metabolites (PGE2, LBT4), Inflammatory Metabolite Markers (5-HETE), and Pro-Resolving Lipid Mediator Markers 15-HETE, 12-HETE, 14-HDOHE, 18-HEPE, and 17-HDOHE. More specifically, analysis was performed by extraction using an Oasis HLB 96-well plate (Waters) according to manufacturer's directions.\n(§5) Suitable Pro-Resolving Activators are ingredients that show an increase in cellular concentration of Pro-Resolving Lipid Mediator Markers 15-HETE, 12-HETE, 14-HDOHE, 18-HEPE, and 17-HDOHE alone or in combination, when cells exposed to an inflammation precipitating condition either before or after exposure to the active."}, "[2]": {"tested_on": "Pro-Resolving Lipid Mediator Markers 15-HETE, 12-HETE, 14-HDOHE, 18-HEPE, and 17-HDOHE", "assay": "Pro-Resolving Lipid Mediator Markers in the aggregate, PMA/A23187-stimulated neutrophils, LC-MS/MS", "assay_type": "cell-based, human", "protocol": "as §1, §2, §3, §4, §5"}}, "data": [{"compound": "Oc1ccc(C=Cc2cc(O)cc(O)c2)cc1", "note": "[resveratrol]", "values": [{"measurement": "decrease in Inflammatory Metabolites and Markers in the aggregate vs control", "setting": "[1]; 0.1 ug/ml", "value": 45, "unit": "%"}, {"measurement": "decrease in Inflammatory Metabolites and Markers in the aggregate vs control", "setting": "[1]; 1 ug/ml", "value": 59, "unit": "%"}, {"measurement": "decrease in Inflammatory Metabolites and Markers in the aggregate vs control", "setting": "[1]; 10 ug/ml", "value": 106, "unit": "%"}, {"measurement": "% change of Pro-Resolving Lipid Mediator Markers in the aggregate compared to control", "setting": "[2]; 0.1 ug/ml", "value": "−27", "unit": "%"}, {"measurement": "% change of Pro-Resolving Lipid Mediator Markers in the aggregate compared to control", "setting": "[2]; 1 ug/ml", "value": "−16", "unit": "%"}, {"measurement": "% change of Pro-Resolving Lipid Mediator Markers in the aggregate compared to control", "setting": "[2]; 10 ug/ml", "value": "−10", "unit": "%"}]}, {"compound": "O=C(O)c1ccccc1O", "note": "[salicylic acid]", "values": [{"measurement": "net decrease in cellular concentration of Inflammatory Metabolites and Inflammatory Metabolite Markers vs control", "setting": "[1]; 0.33 μg/ml, aggregate of PGE2, LTB4, 5-HETE", "value": 29, "unit": "%"}, {"measurement": "net decrease in cellular concentration of Inflammatory Metabolites and Inflammatory Metabolite Markers vs control", "setting": "[1]; 3.3 μg/ml, aggregate", "value": 58, "unit": "%"}, {"measurement": "net decrease in cellular concentration of Inflammatory Metabolites and Inflammatory Metabolite Markers vs control", "setting": "[1]; 33 μg/ml, aggregate", "value": 46, "unit": "%"}, {"measurement": "change in cellular concentration of Pro-Resolving Lipid Mediators vs control", "setting": "[2]; 0.33 ug/ml", "value": "small increase"}, {"measurement": "change in cellular concentration of all Pro-Resolving Lipid Mediator Markers in the aggregate vs control", "setting": "[2]; 3.3 μg/ml", "value": "decreased"}, {"measurement": "change in cellular concentration of all Pro-Resolving Lipid Mediator Markers in the aggregate vs control", "setting": "[2]; 33 μg/ml", "value": "decreased"}]}, {"compound": "resveratrol salicylate", "values": [{"measurement": "decrease in Inflammatory Metabolites and Inflammation Metabolite Markers in the aggregate vs control", "setting": "[1]; 0.43 ug/ml", "value": 87, "unit": "%"}, {"measurement": "decrease in Inflammatory Metabolites and Inflammation Metabolite Markers in the aggregate vs control", "setting": "[1]; 4.3 ug/ml", "value": 163, "unit": "%"}, {"measurement": "decrease in Inflammatory Metabolites and Inflammation Metabolite Markers in the aggregate vs control", "setting": "[1]; 43 ug/ml", "value": 257, "unit": "%"}, {"measurement": "increase in cellular concentration of Pro-Resolving Lipid Mediator Markers in the aggregate", "setting": "[2]; 0.43 ug/ml", "value": "not being as effective"}, {"measurement": "increase in cellular concentration of Pro-Resolving Lipid Mediator Markers in the aggregate", "setting": "[2]; 4.3 ug/ml", "value": 4, "unit": "%"}, {"measurement": "increase in cellular concentration of Pro-Resolving Lipid Mediator Markers in the aggregate", "setting": "[2]; 43 ug/ml", "value": 37, "unit": "%"}]}]}
